Results published in article PMC6199744, “Development of Chemical Proteomics for the Folateome and Analysis of the Kinetoplastid Folateome” (ACS Infectious Diseases, 2018).
Where two headings read alike, the source gives them in different places.

Tested on: T. brucei lysate proteins
Type: binding, Trypanosoma brucei

## Nc1nc2cccc(-c3ccccc3)c2n1Cc1ccc(Cl)c(Cl)c1 [compound 3]
Protein TB927.7.5340 HY[…], CONSERVED
  fold change - vehicle control: 0.45
Protein TB927.7.7430 ATP SYNTHASE ALPHA CHAIN, MIT[…]
  fold change - vehicle control: 0.95
Protein TB927.8.1990 PEROXIDOXIN
  fold change - vehicle control: 0.95
Protein TB927.8.4720 AMINO ACID TRANSPORTER, PUTATIVE
  fold change - vehicle control: 0.82
Protein TB927.8.890 SMALL GTP-BINDING PROTEIN RAB1, PUTATIVE
  fold change - vehicle control: 0.96
Relative to vehicle control = 1, protein TB09.160.2550 RIBOSOMAL PROTEIN S7, PUTATIVE
  fold change: 0.97
Relative to vehicle control = 1, protein TB09.160.3270 ATP-DEPENDENT DEAD BOX HELICASE, PUTATIVE
  fold change: 1
Relative to vehicle control = 1, protein TB09.160.4250 TR[…]
  fold change: 0.95
Relative to vehicle control = 1, protein TB09.211.3540 GLYCEROL KINASE, GLYCOSOMAL
  fold change: 0.92
Relative to vehicle control = 1, protein TB11.01.1270 NUCLEIC ACID BINDING PROTEIN, PUTATIVE
  fold change: 0.99
Relative to vehicle control = 1, protein TB11.02.1135 DYNEIN LIGHT CHAIN, PUTATIVE
  fold change: 1
Relative to vehicle control = 1, protein TB11.02.2960 MIT[…] PROTEIN, PUTATIVE
  fold change: 0.96
Relative to vehicle control = 1, protein TB11.02.4700 14-3-3 PROTEIN
  fold change: 0.87
Relative to vehicle control = 1, protein TB11.03.0815 DYNEIN LIGHT CHAIN
  fold change: 0.99
Relative to vehicle control = 1, protein TB427TMP.01.0480 HY[…], CONSERVED
  fold change: 0.95
Relative to vehicle control = 1, protein TB427TMP.01.1400 GLYCYL-TRNA SYNTHETASE, PUTATIVE
  fold change: 0.9
Relative to vehicle control = 1, protein TB427TMP.01.1680 POLYUBIQUITIN, PUTATIVE
  fold change: 0.93
Relative to vehicle control = 1, protein TB427TMP.01.1830 HY[…], CONSERVED
  fold change: 1
Relative to vehicle control = 1, protein TB427TMP.01.3370 […] PROTEIN, PUTATIVE
  fold change: 0.94
Relative to vehicle control = 1, protein TB427TMP.01.6880 CYTOSOLIC COAT PROTEIN, PUTATIVE
  fold change: 0.81
Relative to vehicle control = 1, protein TB427TMP.01.7530 HY[…], CONSERVED
  fold change: 0.93
Relative to vehicle control = 1, protein TB427TMP.02.1120 ADENYL[…], PUTATIVE
  fold change: 0.99
Relative to vehicle control = 1, protein TB427TMP.02.1460 HY[…], CONSERVED
  fold change: 0.95
Relative to vehicle control = 1, protein TB427TMP.02.2120 NUCLEOPORIN 48
  fold change: 0.94
Relative to vehicle control = 1, protein TB427TMP.02.2970 KINESIN, PUTATIVE
  fold change: 0.91
Relative to vehicle control = 1, protein TB427TMP.02.3120 MALIC ENZYME, PUTATIVE
  fold change: 0.82
Relative to vehicle control = 1, protein TB427TMP.02.4550 HY[…], CONSERVED
  fold change: 1
Relative to vehicle control = 1, protein TB427TMP.02.5450 GLUCOSE-REGULATED PROTEIN 78, PUTATIVE
  fold change: 0.93
Relative to vehicle control = 1, protein TB427TMP.03.0090 RIBOKINASE, PUTATIVE
  fold change: 0.84
Relative to vehicle control = 1, protein TB427TMP.160.4770 PROTEIN KINASE, PUTATIVE
  fold change: 0.93
Relative to vehicle control = 1, protein TB427TMP.160.4910 FLAVOPROTEIN MONOOXYGENASE, PUTATIVE
  fold change: 0.97
Relative to vehicle control = 1, protein TB427TMP.18.0005 HY[…], CONSERVED
  fold change: 0.93
Relative to vehicle control = 1, protein TB427TMP.22.0004 HY[…], CONSERVED
  fold change: 0.97
Relative to vehicle control = 1, protein TB427TMP.39.0006 T[…] EIF2B DELTA SUBUNIT, PUTATIVE
  fold change: 0.9
Relative to vehicle control = 1, protein TB427.01.4050 PROTEIN P[…] EF-HAND DOMAINS (PPEF)
  fold change: 0.93
Relative to vehicle control = 1, protein TB427.02.1170 RETRO[…] SPOT (RHS) PROTEIN, PUTATIVE
  fold change: 0.96
Relative to vehicle control = 1, protein TB427.02.6220 ADENOSINE TRANSPORTER 2, PUTATIVE
  fold change: 0.98
Relative to vehicle control = 1, protein TB427.03.3160 POLY(A) POLYMERASE
  fold change: 0.77
Relative to vehicle control = 1, protein TB427.03.3560 HY[…], CONSERVED
  fold change: 0.83
Relative to vehicle control = 1, protein TB427.03.5420 PROTEIN TRANSPORT PROTEIN SEC24
  fold change: 0.9
Relative to vehicle control = 1, protein TB427.04.1510 PHOSPHOLIPID-TRA[…], PUTATIVE
  fold change: 0.86
Relative to vehicle control = 1, protein TB427.05.2320 HY[…], CONSERVED
  fold change: 0.8
Relative to vehicle control = 1, protein TB427.05.300 THYMINE-7-HYDROXYLASE, PUTATIVE
  fold change: 0.82
Relative to vehicle control = 1, protein TB427.05.4530 FATTY ACID ELONGASE, PUTATIVE
  fold change: 0.77
Relative to vehicle control = 1, protein TB427.05.520 STOMATIN-LIKE PROTEIN, PUTATIVE
  fold change: 1
Relative to vehicle control = 1, protein TB427.06.2550 RNA-BINDING PROTEIN, PUTATIVE
  fold change: 1.2
Relative to vehicle control = 1, protein TB427.06.3650 ADP-RI[…], PUTATIVE
  fold change: 0.91
Relative to vehicle control = 1, protein TB427.06.3860 HY[…], CONSERVED
  fold change: 0.97
Relative to vehicle control = 1, protein TB427.07.2340 40S RIBOSOMAL PROTEIN S15, PUTATIVE
  fold change: 0.87
Relative to vehicle control = 1, protein TB427.07.2570 MRNA […], PUTATIVE
  fold change: 0.63
Relative to vehicle control = 1, protein TB427.07.4180 FATTY ACID ELONGASE, PUTATIVE
  fold change: 0.92
Relative to vehicle control = 1, protein TB427.07.7500 THYMINE-7-HYDROXYLASE, PUTATIVE
  fold change: 0.88
Relative to vehicle control = 1, protein TB427.08.3150 T-COMPLEX PROTEIN 1, GAMMA SUBUNIT, PUTATIVE
  fold change: 0.99
Relative to vehicle control = 1, protein TB427.08.3490 HY[…], CONSERVED
  fold change: 0.95
Relative to vehicle control = 1, protein TB427.08.5460 FLAGELLAR CALCIUM-BINDING PROTEIN
  fold change: 0.72
Relative to vehicle control = 1, protein TB427.08.6110 HY[…], CONSERVED
  fold change: 0.82
Relative to vehicle control = 1, protein TB427.10.11930 NAD OR NADP DEPENDENT OXIDOREDUCTASE, PUTATIVE
  fold change: 0.78
Relative to vehicle control = 1, protein TB427.10.12510 P-TYPE H+-ATPASE, PUTATIVE
  fold change: 1
Relative to vehicle control = 1, protein TB427.10.13110 DYNEIN LIGHT CHAIN, PUTATIVE
  fold change: 0.88
Relative to vehicle control = 1, protein TB427.10.13880 HY[…], CONSERVED
  fold change: 0.88
Relative to vehicle control = 1, protein TB427.10.14140 PYRUVATE KINASE 1
  fold change: 0.93
Relative to vehicle control = 1, protein TB427.10.14910 SA[…] GLYCOPROTEIN, PUTATIVE
  fold change: 0.83
Relative to vehicle control = 1, protein TB427.10.15180 […] PROTEIN, PUTATIVE
  fold change: 1.2
Relative to vehicle control = 1, protein TB427.10.2350 PYRUVATE DEH[…] E3 BINDING PROTEIN, PUTATIVE
  fold change: 1
Relative to vehicle control = 1, protein TB427.10.4940 NUCLEAR DBF2-RELATED KINASE
  fold change: 0.8
Relative to vehicle control = 1, protein TB427.10.7630 HY[…], CONSERVED
  fold change: 0.97
Relative to vehicle control = 1, protein TB427.10.9800 60S RIBOSOMAL PROTEIN L22
  fold change: 0.82
Relative to vehicle control = 1, protein TB927.10.13360 […] TU, PUTATIVE
  fold change: 0.96
Relative to vehicle control = 1, protein TB927.1.2330 BETA TUBULIN
  fold change: 0.96
Relative to vehicle control = 1, protein TB927.1.2400 ALPHA TUBULIN
  fold change: 0.96
Relative to vehicle control = 1, protein TB927.10.3280 60S RIBOSOMAL PROTEINS L38, PUTATIVE
  fold change: 0.99
Relative to vehicle control = 1, protein TB927.10.4180 TFIIF-[…] PHOSPHATASE, PUTATIVE
  fold change: 0.97
Relative to vehicle control = 1, protein TB927.10.4690 DYNEIN LIGHT CHAIN, PUTATIVE
  fold change: 0.9
Relative to vehicle control = 1, protein TB927.10.5330 40S RIBOSOMAL PROTEIN S18, PUTATIVE
  fold change: 0.74
Relative to vehicle control = 1, protein TB927.10.6670 DYNEIN LIGHT CHAIN, PUTATIVE
  fold change: 0.92
Relative to vehicle control = 1, protein TB927.2.2440 […]-ATPASE SUBUNIT 6
  fold change: 2.27
Relative to vehicle control = 1, protein TB927.3.1120 GTP-BINDING NUCLEAR PROTEIN RTB2, PUTATIVE
  fold change: 0.9
Relative to vehicle control = 1, protein TB927.3.3490 HIGH MOBILITY GROUP PROTEIN, PUTATIVE
  fold change: 0.89
Relative to vehicle control = 1, protein TB927.3.4360 40S RIBOSOMAL PROTEIN S15A, PUTATIVE
  fold change: 1.3
Relative to vehicle control = 1, protein TB927.4.4650 […] SYNTHASE, PUTATIVE
  fold change: 0.72
Relative to vehicle control = 1, protein TB927.5.1930 HY[…], CONSERVED
  fold change: 0.83
Relative to vehicle control = 1, protein TB927.6.4140 PAR[…] COMPONENT, PUTATIVE
  fold change: 0.9
Relative to vehicle control = 1, protein TB927.7.2500 […] SUBUNIT 1
  fold change: 0.91
Relative to vehicle control = 1, protein TB927.7.4500 HY[…], CONSERVED
  fold change: 0.87
Relative to vehicle control = 1, protein TB927.8.1510 ATP-DEPENDENT DEAD/H RNA HELICASE, PUTATIVE
  fold change: 1
Vs vehicle control, protein TB09.160.3710 PRO[…] NUCLEAR ANTIGEN (PCNA), PUTATIVE
  fold change: 0.94
Vs vehicle control, protein TB11.01.4370 HY[…], CONSERVED
  fold change: 0.98
Vs vehicle control, protein TB427TMP.01.8510 T-COMPLEX PROTEIN 1, ALPHA SUBUNIT, PUTATIVE
  fold change: 0.9
Vs vehicle control, protein TB427.01.1670 HY[…], CONSERVED
  fold change: 0.93
Vs vehicle control, protein TB427.03.4750 AMINOPEPTIDASE, PUTATIVE
  fold change: 0.96
Vs vehicle control, protein TB427.05.3170 RIBOSE-PHOSPHATE PYROPHOSPHOKINASE, PUTATIVE
  fold change: 0.92
Vs vehicle control, protein TB427.06.1070 HY[…], CONSERVED
  fold change: 0.95
Vs vehicle control, protein TB427.06.4890 S-ADENOSYL[…], PUTATIVE
  fold change: 0.98
Vs vehicle control, protein TB427.08.3660 PROTEIN TRANSPORT PROTEIN SEC23
  fold change: 0.95
Vs vehicle control, protein TB427.10.10980 HEAT SHOCK PROTEIN 83
  fold change: 0.99
Vs vehicle control, protein TB427.10.11760 PUMILIO/PUF RNA BINDING PROTEIN 6
  fold change: 0.91
Vs vehicle control, protein TB427.10.14550 ATP-DEPENDENT DEAD/H RNA HELICASE, PUTATIVE
  fold change: 0.99
Vs vehicle control, protein TB427.10.2290 CHAPERONE PROTEIN DNAJ, PUTATIVE
  fold change: 0.93
Vs vehicle control, protein TB927.5.1630 HY[…], CONSERVED
  fold change: 0.91
Vs vehicle control, protein TB927.6.4980 40S RIBOSOMAL PROTEIN S14
  fold change: 1.1
